Assay [1] addresses recombinant PARP1 (AA662-1014) protein (Homo sapiens (Human), UniProt P09874). Briefly: Tracer displacement fluorescence polarization assay. The following applies: displacement of AlexaFluor488 tracer from NAD+-binding site, PARP1 25 nM. The protocol: Example B. Tracer Displacement Fluorescence Polarization Assays
Displacement of AlexaFlour488 marked tracer from the NAD+-binding site of recombinant PARP1 (AA662-1014) protein (OriGene, Cat #: AR09368PU-L) was measured in vitro using Fluorescence polarization assay. The reaction was carried out in assay buffer (50 mM TRIS-HCl pH 7.4-7.8, 150 mM NaCl, 10 mM MgCl2, 0.001% Triton-X). 2×PARP1 (final concentration 25 nM) was diluted in 1× Assay buffer and 10 μl of the solution per well was added into 384-well Black Non-Treated Reaction plate (Corning, Cat #4511). Plates were centrifuged for 1 min at 200 g. The compounds were prepared in a 384-well Diamond Well Plate (Axygen, Cat #P-384-120SQ-C-S) as 400× solutions in DMSO and were transferred into Reaction plate using the Biomek FX liquid handling system with intermediate dilution down to 10× working solution in assay buffer in a separate 384-well Diamond Well Plate (Axygen, Cat #P-384-120SQ-C-S) (2 μl per well). Plates were centrifuged for 1 min at 200 g and incubated for 15 min at room temperature in the dark. Then 8 μL per well of 2.5× Tracer AlexaFluor488 (final concentration 1 nM) diluted in 1× Assay buffer was added into Reaction plate. 1× Assay buffer was used to make blank samples for instrument calculations. Plates were incubated for 30 minutes at room temperature in the dark. Fluorescence polarization was measured using Microplate Reader (BMG, ClarioStar Plus). The % tracer displacement was used to calculate the IC50 values. The IC50 values are shown in Table A, wherein “A” corresponds to IC50<0.01 μM, “B” corresponds to 0.01 μM≤IC50<0.1 μM, “C” 0.1 μM≤IC50<[…], and “D” corresponds to […].
(In fluorescence polarisation assays a small probe gives low polarisation when free and higher when bound to something large.)

The next assay addresses recombinant Wee1 protein (Homo sapiens (Human), UniProt P30291). Briefly: Wee1 enzymatic activity inhibition, ADP-Glo luminescence assay. The format is biochemical. The following applies: recombinant Wee1, PolyE4Y1 substrate, 1 h room temperature. The method, then: Example A. Primary Assay Used to Determine Potency of Wee1 Enzymatic Activity Inhibition
Compound activity was determined using recombinant Wee1 protein (BPS, Cat #40412) and PolyE4Y1 Substrate (Poly(Glu,Tyr) sodium salt, Sigma, Cat #P0275-25MG) in an in vitro enzymatic reaction. The enzymatic assay used to determine activity was a Luminescence assay using a Microplate Reader (BMG, ClarioStar Plus). The enzymatic reaction was carried out in assay buffer (40 mM TRIS-HCl pH 7.4-7.6, 20 mM MgCl2, 0.05 mM DTT, 0.1 mg/ml BSA, 5 mM MnCl2). The compounds were dispensed on a 384 well Diamond Well Plate (Axigen, Cat #P-384-120SQ-C-S) using the Biomek FX liquid handling system at 100× solutions of compounds in DMSO. 2×Wee1-PolyE4Y1 mix (final concentration 0.85 ng/μl of Wee1 and 0.2 μg/μl of PolyE4Y1) was prepared in 1× Assay buffer and 5.5 μl of mixture per well was added into 384w white Reaction plate with NBS (Corning, Cat #4513). 5.5 μl of PolyE4Y1 substrate w/o Wee1 in 1× buffer was used for negative control. Plates were centrifuged for 1 min at 100 g. Next step the Compounds were added to Reaction plate using Biomek station via following steps: 1 μl of 100× compounds (in DMSO) were mixed thoroughly with 49 μl of 2×10 μM ATP in Assay Buffer, then 5.5 μl of this mixture was added to Reaction plate with 5.5 μl of Wee1-PolyE4Y1 mix. Plates were centrifuged for 1 min at 100 g and incubated for 1 h at room temperature. Next 3 μL of ADP-Glo reagent (Promega, ADP-Glo™ Kinase Assay, Cat #V9102) per well was added. Plates were incubated for 30 minutes at room temperature. Then 6 μL of Kinase detection reagent (Promega, ADP-Glo™ Kinase Assay, Cat #V9102) per well was added and the Luminescence was measured using Microplate Reader. The % inhibition was then used to calculate the IC50 values. The IC50 values are shown in Table A, wherein “A” corresponds to IC50<0.01 μM, “B” corresponds to 0.01 μM≤IC50<0.1 μM, “C” 0.1 μM≤IC50<1 μM, and “D” corresponds to […].
In general terms: ADP-Glo turns the ADP formed in a reaction into a luminescent signal.

Sequence of recombinant PARP1 (AA662-1014) protein (P09874 662-1014): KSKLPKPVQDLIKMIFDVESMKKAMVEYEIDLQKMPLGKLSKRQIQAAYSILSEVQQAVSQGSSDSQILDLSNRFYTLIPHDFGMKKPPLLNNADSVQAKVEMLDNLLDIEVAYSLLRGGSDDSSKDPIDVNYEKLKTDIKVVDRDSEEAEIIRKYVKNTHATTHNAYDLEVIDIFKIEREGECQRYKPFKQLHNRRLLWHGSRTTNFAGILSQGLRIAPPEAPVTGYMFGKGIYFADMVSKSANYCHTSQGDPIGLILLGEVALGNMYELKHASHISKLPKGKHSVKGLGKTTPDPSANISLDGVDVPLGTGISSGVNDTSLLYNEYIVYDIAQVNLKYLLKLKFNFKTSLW
Sequence of recombinant Wee1 protein (P30291 whole entry): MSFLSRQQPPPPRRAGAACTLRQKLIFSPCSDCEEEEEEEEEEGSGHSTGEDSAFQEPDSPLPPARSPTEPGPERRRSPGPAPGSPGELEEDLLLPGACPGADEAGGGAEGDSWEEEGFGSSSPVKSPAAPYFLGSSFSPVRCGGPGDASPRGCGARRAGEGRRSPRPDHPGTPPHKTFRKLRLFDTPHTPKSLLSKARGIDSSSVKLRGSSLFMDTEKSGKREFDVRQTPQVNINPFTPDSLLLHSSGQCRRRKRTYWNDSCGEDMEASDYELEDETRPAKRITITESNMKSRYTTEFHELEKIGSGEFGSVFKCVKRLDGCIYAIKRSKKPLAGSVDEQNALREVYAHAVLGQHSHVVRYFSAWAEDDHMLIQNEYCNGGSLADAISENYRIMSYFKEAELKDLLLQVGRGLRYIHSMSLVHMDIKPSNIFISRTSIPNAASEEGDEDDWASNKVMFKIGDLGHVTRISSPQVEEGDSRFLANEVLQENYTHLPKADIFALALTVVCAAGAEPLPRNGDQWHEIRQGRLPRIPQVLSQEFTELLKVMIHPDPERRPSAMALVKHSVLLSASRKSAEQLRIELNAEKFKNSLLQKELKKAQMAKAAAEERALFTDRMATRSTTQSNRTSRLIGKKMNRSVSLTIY

In general, EC50 refers to the concentration at which the effect is half-maximal. On to `C=CCn1c(=O)c2cnc(N3CCN(C(=O)c4cc(Cc5n[nH]c(=O)c6ccccc56)ccc4F)CC3)nc2n1-c1cccc(C(C)(C)O)n1` [Compound 2, 4-{3-[(4-{2-Allyl-1-[6-(1-hydroxy-1-methylethyl)pyridin-2-yl]-3-oxo-2,3-dihydro-1H-pyrazolo[3,4-d]pyrimidin-6-yl}piperazin-1-yl)carbonyl]-4-fluorobenzyl}phthalazin-1(2H)-one], for which, in assay [1], the half-maximal effective concentration (EC50) was in the range of 0.01 to 0.1 µM.

With `C=CCn1c(=O)c2cnc(NC3CCN(C(=O)c4cc(Cc5n[nH]c(=O)c6ccccc56)ccc4F)CC3)nc2n1-c1cccc(C(C)(C)O)n1` [Compound 4, 4-(3-{[4-({2-Allyl-1-[6-(1-hydroxy-1-methylethyl)pyridin-2-yl]-3-oxo-2,3-dihydro-1H-pyrazolo[3,4-d]pyrimidin-6-yl}amino)piperidin-1-yl]carbonyl}-4-fluorobenzyl)phthalazin-1(2H)-one], the EC50 in assay [1] is 0.1 to 1 µM.

Turning to `Cn1c(=O)c2cnc(N3CCN(C(=O)c4cc(Cc5n[nH]c(=O)c6ccccc56)ccc4F)CC3)nc2n1-c1ccccn1` [Compound 5, 4-(4-Fluoro-3-{[4-(2-methyl-3-oxo-1-pyridin-2-yl-2,3-dihydro-1H-pyrazolo[3,4-d]pyrimidin-6-yl)piperazin-1-yl]carbonyl}benzyl)phthalazin-1(21)-one], in assay [1], the EC50 was 0.01 to 0.1 µM.

`C=CCn1c(=O)c2cnc(NCCNC(=O)c3cc(Cc4n[nH]c(=O)c5ccccc45)ccc3F)nc2n1-c1cccc(C(C)(C)O)n1` [Compound 6, N-[2-({2-Allyl-1-[6-(1-hydroxy-1-methylethyl)pyridin-2-yl]-3-oxo-2,3-dihydro-1H-pyrazolo[3,4-d]pyrimidin-6-yl}amino)ethyl]-2-fluoro-5-[(4-oxo-3,4-dihydrophthalazin-1-yl)methyl]benzamide]: the 50% effective concentration (EC50) in assay [1] is 0.1 to 1 µM.

Turning to `Cn1c(=O)c2cnc(Nc3ccc(N4CCN(C(=O)c5cc(Cc6n[nH]c(=O)c7ccccc67)ccc5F)CC4)cc3)nc2n1-c1cccc(C(C)(C)O)n1` [Compound 7, 4-[4-Fluoro-3-({4-[4-({1-[6-(1-hydroxy-1-methylethyl)pyridin-2-yl]-2-methyl-3-oxo-2,3-dihydro-1H-pyrazolo[3,4-d]pyrimidin-6-yl}amino)phenyl]piperazin-1-yl}carbonyl)benzyl]phthalazin-1(2H)-one], in assay [1], the EC50 was < 0.01 µM.

`Cn1c(=O)c2cnc(Nc3ccc(N4CCN(Cc5cc(Cc6n[nH]c(=O)c7ccccc67)ccc5F)CC4)cc3)nc2n1-c1cccc(C(C)(C)O)n1` [Compound 8, 4-[4-Fluoro-3-({4-[4-({1-[6-(1-hydroxy-1-methylethyl)pyridin-2-yl]-2-methyl-3-oxo-2,3-dihydro-1H-pyrazolo[3,4-d]pyrimidin-6-yl}amino)phenyl]piperazin-1-yl}methyl)benzyl]phthalazin-1(2H)-one]: in assay [1], the EC50 was in the range of 0.1 to 1 µM.

Regarding `COCCn1c(=O)c2cnc(Nc3ccc(N4CCN(C(=O)c5cc(Cc6n[nH]c(=O)c7ccccc67)ccc5F)CC4)cc3)nc2n1-c1ccccn1` [Compound 9, 4-(4-Fluoro-3-{[4-(4-{[2-(2-methoxyethyl)-3-oxo-1-pyridin-2-yl-2,3-dihydro-1H-pyrazolo[3,4-d]pyrimidin-6-yl]amino}phenyl)piperazin-1-yl]carbonyl}benzyl)phthalazin-1(2H)-one], the concentration for a half-maximal effect (EC50) in assay [1] is < 0.01 µM; on recombinant Wee1 protein it was 0.01 to 0.1 µM.

On to `Cn1c2nc(Nc3ccc(N4CCN(C(=O)c5cc(Cc6n[nH]c(=O)c7ccccc67)ccc5F)CC4)cc3)ncc2c(=O)n1-c1ccccn1` [Compound 12, 4-{4-Fluoro-3-[(4-{4-[(1-methyl-3-oxo-2-pyridin-2-yl-2,3-dihydro-1H-pyrazolo[3,4-d]pyrimidin-6-yl)amino]phenyl}piperazin-1-yl)carbonyl]benzyl}phthalazin-1(2H)-one], for which the concentration giving a half-maximal response (EC50) in assay [1] was < 0.01 µM.

Consider `COCCn1c(=O)c2cnc(Nc3ccc(N4CCN(C(=O)c5cc(Cc6n[nH]c(=O)c7ccccc67)ccc5F)CC4)cc3)nc2n1-c1cccc(C(C)(C)O)n1` [Compound 13, 4-(4-Fluoro-3-{[4-(4-{[1-[6-(1-hydroxy-1-methylethyl)pyridin-2-yl]-2-(2-methoxyethyl)-3-oxo-2,3-dihydro-1H-pyrazolo[3,4-d]pyrimidin-6-yl]amino}phenyl)piperazin-1-yl]carbonyl}benzyl)phthalazin-1(2H)-one], for which the EC50 in assay [1] is < 0.01 µM; on recombinant Wee1 protein, 0.01 to 0.1 µM.

For `Cn1c2nc(Nc3ccc(N4CCN(C(=O)c5cc(Cn6c(=O)[nH]c(=O)c7c(F)cccc76)ccc5F)CC4)cc3)ncc2c(=O)n1-c1ccccn1` [Compound 17, 5-Fluoro-1-{4-fluoro-3-[(4-{4-[(1-methyl-3-oxo-2-pyridin-2-yl-2,3-dihydro-1H-pyrazolo[3,4-d]pyrimidin-6-yl)amino]phenyl}piperazin-1-yl)carbonyl]benzyl}quinazoline-2,4(1H,3H)-dione], the EC50 in assay [1] was < 0.01 µM.

Take `C=CCn1c(=O)c2cnc(Nc3ccc(N4CCN(C(=O)c5cc(Cn6c(=O)[nH]c(=O)c7c(F)cccc76)ccc5F)CC4)cc3)nc2n1-c1ccccn1` [Compound 28, 1-{3-[(4-{4-[(2-Allyl-3-oxo-1-pyridin-2-yl-2,3-dihydro-1H-pyrazolo[3,4-d]pyrimidin-6-yl)amino]phenyl}piperazin-1-yl)carbonyl]-4-fluorobenzyl}-5-fluoroquinazoline-2,4(1H,3H)-dione]: the EC50 in assay [1] was < 0.01 µM.

Take `C=CCn1c(=O)c2cnc(Nc3ccc(N4CCN(Cc5cc(Cn6c(=O)[nH]c(=O)c7c(F)cccc76)ccc5F)CC4)cc3)nc2n1-c1cccc(C(C)(C)O)n1` [Compound 34, 1-[3-({4-[4-({2-Allyl-1-[6-(1-hydroxy-1-methylethyl)pyridin-2-yl]-3-oxo-2,3-dihydro-1H-pyrazolo[3,4-d]pyrimidin-6-yl}amino)phenyl]piperazin-1-yl}methyl)-4-fluorobenzyl]-5-fluoroquinazoline-2,4(1H,3H)-dione]: in assay [1], the EC50 lay in the range of 0.1 to 1 µM.

Take `C=CCn1c(=O)c2cnc(Nc3ccc(N4CCN(Cc5ccc(-c6[nH]c7cc(F)cc8c7c6CCNC8=O)cc5)CC4)cc3)nc2n1-c1ccccn1` [Compound 39, 2-[4-[[4-[4-[[2-Allyl-3-oxo-1-(2-pyridyl)pyrazolo[3,4-d]pyrimidin-6-yl]amino]phenyl]piperazin-1-yl]methyl]phenyl]-6-fluoro-3,10-diazatricyclo[6.4.1.04,13]trideca-1,4,6,8(13)-tetraen-9-one]: the 50% effective concentration (EC50) in assay [1] lay within 0.01 to 0.1 µM.

As to `C=CCn1c(=O)c2cnc(NC3CCN(Cc4ccc(-c5[nH]c6cc(F)cc7c6c5CCNC7=O)cc4)CC3)nc2n1-c1cccc(C(C)(C)O)n1` [Compound 47, 2-(4-{[4-({2-Allyl-1-[6-(1-hydroxy-1-methylethyl)pyridin-2-yl]-3-oxo-2,3-dihydro-1H-pyrazolo[3,4-d]pyrimidin-6-yl}amino)piperidin-1-yl]methyl}phenyl)-8-fluoro-1,3,4,5-tetrahydro-6H-azepino[5,4,3-cd]indol-6-one], the EC50 in assay [1] is < 0.01 µM.

As to `Cn1c2nc(Nc3ccc(N4CCC(c5nc6cccc(C(N)=O)c6[nH]5)CC4)cc3)ncc2c(=O)n1-c1ccccn1` [Compound 91], the EC50 in assay [1] lay within 0.01 to 0.1 µM.

These data come from patent publication US20250270212A1, “CHIMERIC COMPOUNDS USEFUL IN TREATING DISEASES” (Padarn Therapeutics, Inc., priority 2021, published 2025).
